Structures are written as SMILES. “And” between values parts separate entries of the source, which are not always exact repeats. Equal entries are not always repeated. Where two headings read alike, the source gives them in different places.

Four molecules from PMC11696576, “Next generation thiazolyl ketone inhibitors of cytosolic phospholipase A2 α for targeted cancer therapy” (Nature Communications, 2025) can be followed below.

Experiment [1] concerns the target T1, secreted GV sPLA2 (Homo sapiens, UniProt P39877).
T1 sequence (P39877 21-138): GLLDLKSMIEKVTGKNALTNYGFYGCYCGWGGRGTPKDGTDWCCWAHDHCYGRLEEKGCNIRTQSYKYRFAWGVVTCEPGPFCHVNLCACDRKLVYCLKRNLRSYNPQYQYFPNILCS
The experiment can be described thus: radioactivity-based mixed micelle assay, GV sPLA2. The format is biochemical. As to the method:
(§1) All synthesized thiazolyl ketones were tested for their in vitro inhibitory activity on recombinant human cPLA2α and selectivity over human calcium-independent GVIA iPLA2 and secreted GV sPLA2 using our previously described group-specific radioactivity-based mixed micelle assays. The inhibition results are presented either as per cent inhibition or as XI(50) values in Table 1. […] The XI(50) is defined as the mole fraction of the inhibitor in the total substrate interface required to inhibit the enzyme activity by 50%. For comparison purposes, previously published data for the inhibitor GK470[19] are included. […] Inhibitors were initially screened at 0.091 mol fraction (5 μL of 5 mM inhibitor in DMSO) in substrate (495 μL) in technical triplicates. […] The XI(50) value and stdev values reported are for the entire curve. This analysis was performed in GraphPad Prism v6.

Experiment [2] deals with SW982 synoviocytes. The experiment can be described thus: cellular arachidonic acid (AA) release assay, IL-1β stimulated. The experiment is classed as cell-based, human. To be noted: for EC50 / IC50: SW982; for IC50: concentration in µM, read-out: logEC50 best-fit value, AA release (converted). From the text: To test the inhibitory activity of the compounds in cells, we measured their effect on the release of AA from synoviocytes stimulated with IL-1β (Table 2). […] Combined with favorable selectivity and stability it was thus chosen for further evaluation. We looked specifically at how it modulated eicosanoid levels in response to stimulation both in whole blood and in isolated peripheral blood mononuclear cells (PBMCs) and checked for off-target effects on AA metabolism in whole blood by also measuring the effect of GK420 on eicosanoid release in the presence of exogenous free AA.
The human synovial sarcoma cell line SW982 (ATCC, London, UK) was used to measure AA release. The cells were maintained in Dulbecco’s Modified Eagle Medium (DMEM) supplemented with 10% FBS, 0.1 mg/mL gentamicin, and 0.3 mg/mL L-glutamine at 37 °C with 10% CO2, and experiments were performed at 3 days post-confluence. To measure AA release, the cells were labeled overnight with ^3H-AA (0.4 μCi/mL) in serum-free DMEM and then washed twice with PBS containing fBSA (2 mg/mL) to remove unincorporated radioactivity. The inhibitors, or DMSO vehicle control, were subsequently added to the cells for 1 hour prior to stimulation with 10 ng/mL IL-1β for 4 h. Supernatants were collected and centrifuged at 300 × g for 5 min to clear them of detached cells and adherent cells were dissolved in 1 N NaOH. The ^3H-AA was assessed by liquid scintillation counting (LS 6500 Multi-Purpose Scintillation Counter, Beckman Coulter, Inc., USA) and the results are given as the inhibition of released ^3H-AA in the supernatants relative to total ^3H-AA incorporated into the cells, as described. EC50 values were calculated by fitting the % inhibition data to a three-parameter dose-response curve in GraphPad prism v10.4.0. Experiments were performed in technical triplicates and repeated at least three times.

The target of experiment [3] is T2, human calcium-independent GVIA iPLA2 (Homo sapiens, UniProt O60733).
T2 sequence (O60733 1-806): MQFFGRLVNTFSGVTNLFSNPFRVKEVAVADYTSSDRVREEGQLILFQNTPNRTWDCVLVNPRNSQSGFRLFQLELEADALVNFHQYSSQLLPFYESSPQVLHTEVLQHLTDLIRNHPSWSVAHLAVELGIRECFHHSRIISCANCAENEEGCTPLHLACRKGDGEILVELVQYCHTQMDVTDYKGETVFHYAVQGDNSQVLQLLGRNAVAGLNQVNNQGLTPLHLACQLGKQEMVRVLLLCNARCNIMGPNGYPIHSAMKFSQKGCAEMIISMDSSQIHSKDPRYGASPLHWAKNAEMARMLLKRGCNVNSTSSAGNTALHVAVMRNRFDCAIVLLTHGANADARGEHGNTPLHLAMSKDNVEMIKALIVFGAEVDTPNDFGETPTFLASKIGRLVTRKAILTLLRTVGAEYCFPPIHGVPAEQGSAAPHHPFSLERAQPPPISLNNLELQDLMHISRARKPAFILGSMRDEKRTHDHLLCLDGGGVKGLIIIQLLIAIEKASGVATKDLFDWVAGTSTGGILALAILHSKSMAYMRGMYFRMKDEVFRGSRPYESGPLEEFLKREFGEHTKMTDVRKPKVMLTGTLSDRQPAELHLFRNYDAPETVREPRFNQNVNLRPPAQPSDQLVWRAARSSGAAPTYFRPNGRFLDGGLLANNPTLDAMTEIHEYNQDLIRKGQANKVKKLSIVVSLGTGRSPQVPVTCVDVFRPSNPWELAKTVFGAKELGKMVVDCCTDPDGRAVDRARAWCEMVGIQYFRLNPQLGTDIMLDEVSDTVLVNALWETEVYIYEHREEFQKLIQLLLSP
Briefly: radioactivity-based mixed micelle assay, GVIA iPLA2. The experiment is classed as biochemical. On the procedure: as §1

[4] abbreviates: 0.091 mole fraction, read-out: GV sPLA2 % Inhib.
[5] abbreviates: average of triplicates, read-out: sPLA2 % inhibition at 0.091 mole fraction, average.
The mark [6] stands for this setting: individual technical replicate, read-out: sPLA2 % inhibition at 0.091 mole fraction.
Where [7] appears, read: 0.2 µM, individual biological replicate.
[8] abbreviates: 1 µM, individual biological replicate.
The mark [9] stands for this setting: 5 µM, individual biological replicate.
Setting [10] is: Homo sapiens, SW982, 4 h, 1 µM inhibitor, IL-1β 4 h, mean ± stdev, read-out: AA release % Inhib.
Setting [11] is: Homo sapiens, IL-1β 4 h, 0.2, 1 or 5 µM inhibitor, read-out: AA release EC50 µM (95% CI).
[12] abbreviates: Homo sapiens, [Agonist] vs. Response (three parameters).
The mark [13] stands for this setting: Homo sapiens, [Agonist] vs. Response (three parameters), read-out: EC50 best-fit value, AA release.
The mark [14] stands for this setting: 0.091 mole fraction, read-out: GVIA iPLA2 % Inhib.
Where [15] appears, read: average of triplicates, read-out: iPLA2 % inhibition at 0.091 mole fraction, average.
Where [16] appears, read: individual technical replicate, read-out: iPLA2 % inhibition at 0.091 mole fraction.

As to `COC(=O)c1csc(C(=O)C(C)Oc2ccc(Oc3ccccc3)cc2)n1` (stereo not drawn) [GK428], the inhibition at 0.091 mole fraction in experiment [1] (setting [4]) came out at 36%; in experiment [1] (setting [5]), 36.4%; in experiment [1] (setting [6]) it was 28.3%; in experiment [3] (setting [14]), 54%; in experiment [3] (setting [15]), 53.6%; in experiment [3] (setting [16]), 54.3%. In addition, the “% inhibition of stimulated AA release” value in experiment [2] (setting [7]) was 5.86% and -31.46% and 2.89% and 15.93%; in experiment [2] (setting [8]) it was 17.3% and 4.11% and 8.14% and 18.84%; in experiment [2] (setting [9]) it was 51.1% and 33.6% and 14.73% and 37.63%. The inhibition at 1 µM in experiment [2] (setting [10]) was 12 ± 7%. In addition, the 50% effective concentration (EC50) in experiment [2] (setting [11]) and in experiment [2] (setting [13]) was 9.34 µM each time. For the same molecule, in experiment [2] (setting [12]), the IC50 was 9.34 µM.
Turning to `CCCCCCCOc1ccc(OC(C)C(=O)c2nc(C(=O)OC)cs2)cc1` (stereo not drawn) [GK439], the inhibition at 0.091 mole fraction was 53% in experiment [1] (setting [4]); 53.3% in experiment [1] (setting [5]); 50.7% in experiment [1] (setting [6]); 67% in experiment [3] (setting [14]); 66.9% in experiment [3] (setting [15]); 68.3% in experiment [3] (setting [16]). Moreover, the “% inhibition of stimulated AA release” value in experiment [2] (setting [7]) was 39.77% and 13.25% and 29.88% and 48.17%; in experiment [2] (setting [8]), 95.13% and 73.24% and 73.33% and 76.5%; in experiment [2] (setting [9]) it was 98.88% and 99.59% and 96.75%. Further, the inhibition at 5 µM in experiment [2] (Homo sapiens, SW982, 5 µM, individual biological replicate) amounted to 116%. Further, the inhibition at 1 µM in experiment [2] (setting [10]) amounted to 80 ± 10%. Also, the EC50 (in general, the concentration at which the effect is half-maximal) in experiment [2] (setting [11]) was 0.32 µM; in experiment [2] (setting [13]), 0.325 µM. Besides, in experiment [2] (setting [12]), the IC50 was 0.325 µM.
With `COC(=O)c1csc(C(=O)COc2ccc(Oc3ccc(F)cc3)cc2)n1` [GK440], the inhibition at 0.091 mole fraction in experiment [1] (setting [4]) was determined as 31%; in experiment [1] (setting [5]), 30.8%; in experiment [1] (setting [6]) it was 34.1%; in experiment [3] (setting [14]), 0%; in experiment [3] (setting [15]), 0%; in experiment [3] (setting [16]), 0%. Moreover, the “sPLA2 % inhibition at 0.091 mole fraction” value in experiment [1] (individual technical replicate) was 29.2%. Further, the “% inhibition of stimulated AA release” value in experiment [2] (setting [7]) was 52.34% and 48.93% and 32.32% and 54.12%; in experiment [2] (setting [8]), 77.97% and 89.75% and 95.95%; in experiment [2] (setting [9]), 121.05% and 107.56% and 129.55% and 117.95%. For the same molecule, the inhibition at 1 µM in experiment [2] (Homo sapiens, SW982, 1 µM, individual biological replicate, read-out: % inhibition of stimulated AA release) came out at 90%; in experiment [2] (setting [10]), 88 ± 8%. Further, the values for the concentration giving a half-maximal response (EC50) in experiment [2] (setting [11]) and in experiment [2] (setting [13]) were 0.18 µM and 0.184 µM, respectively. Moreover, the IC50 in experiment [2] (setting [12]) was 0.184 µM.
`CCCCCCSc1ccc(OC(C)C(=O)c2nc(C(=O)OC)cs2)cc1` (stereo not drawn) [GK449]: the inhibition at 0.091 mole fraction came out at 53% in experiment [1] (setting [4]); 51.8% in experiment [1] (setting [6]); 67% in experiment [3] (setting [14]); 67.1% in experiment [3] (setting [15]); 73.4% in experiment [3] (setting [16]). Further, the “% inhibition of stimulated AA release” value in experiment [2] (setting [7]) is 16.56% and 7.46% and 9.46% and 46.5%; in experiment [2] (setting [8]) it was 47.16% and 43.5% and 67.91% and 74.94%; in experiment [2] (setting [9]) it was 92.05% and 77.81% and 56.83% and 101.84%. Moreover, the inhibition at 1 µM in experiment [2] (setting [10]) came out at 58 ± 15%. Moreover, the EC50 is 0.78 µM in experiment [2] (setting [11]) and 0.783 µM in experiment [2] (setting [13]). Further, the IC50 in experiment [2] (setting [12]) is 0.783 µM.
